What was measured:
[1] = test system: Monocotyledonous and dicotyledonous test plants; assay: Example B2: post-emergence herbicidal action, 2 kg of AS/ha; type: in vivo; parameters: key: 1 = complete damage, 9 = no effect; conditions: 4- to 6-leaf stage, about 18 days, scale 1-9; for post-emergence action rating, Avena: test plant Avena; for post-emergence action rating, Setaria: test plant Setaria; for post-emergence action rating, Sinapis: test plant Sinapis; for post-emergence action rating, Solanum: test plant Solanum; for post-emergence action rating, Stellaria: test plant Stellaria
Experimental: Monocotyledonous and dicotyledonous test plants are grown in plastic pots with standard soil in a greenhouse and, in the 4- to 6-leaf stage, are sprayed with an aqueous suspension of the test substances of the formula 1, prepared from a 25% wettable powder (Example F3, b) according to WO 97134485) or with an emulsion of the test substances of the formula I, prepared from a 25% emulsion concentrate (Example F1, c) according to WO 97/34485), corresponding to a dosage of 2 kg of AS/ha (500 l of water/ha). The test plants are then grown further under optimum conditions in a greenhouse. After a test period of about 18 days, the test is evaluated with a nine-level scale of rating (1=complete damage, 9=no effect). Ratings of 1 to 4 (in particular 1 to 3) mean good to very good herbicidal action. In this test, the compounds of the formula I show strong herbicidal action.

[2] = test system: Monocotyledonous and dicotyledonous test plants; assay: Example B1: pre-emergence herbicidal action, 2 kg of AS/ha; type: in vivo; conditions: 3 weeks, scale 1-9; for pre-emergence action rating, Avena: test plant Avena; for pre-emergence action rating, Cyperus: test plant Cyperus; for pre-emergence action rating, Setaria: test plant Setaria; for pre-emergence action rating, Sinapis: test plant Sinapis; for pre-emergence action rating, Solanum: test plant Solanum; for pre-emergence action rating, Stellaria: test plant Stellaria
Experimental: Monocotyledonous and dicotyledonous test plants are sown in standard soil in plastic pots. Immediately after sowing, the test substances are sprayed on (500 l of water/ha) as an aqueous suspension (prepared from a 25% wettable powder (Example F3, b) according to WO 97/34485) or emulsion (prepared from a 25% emulsion concentrate (Example F1, c)), corresponding to a dosage of 2 kg of AS/ha. The test plants are then grown under optimum conditions in a greenhouse. After a test period of 3 weeks, the test is evaluated with a nine-level scale of ratings (1=complete damage, 9=no effect). Ratings of 1 to 4 (in particular 1 to 3) mean good to very good herbicidal action.

COCc1nc(C(F)(F)F)ccc1C(=O)C1=C(O)C2CCC(C2)C1=O (stereo not shown) [Compound 1.021]
3: pre-emergence action rating, Stellaria [2]
2: post-emergence action rating, Avena [1] | post-emergence action rating, Solanum [1] | post-emergence action rating, Stellaria [1] | pre-emergence action rating, Cyperus [2]
1: post-emergence action rating, Sinapis [1] | pre-emergence action rating, Setaria [2] | pre-emergence action rating, Sinapis [2] | pre-emergence action rating, Solanum [2]
4: post-emergence action rating, Setaria [1] | pre-emergence action rating, Avena [2]

CC1=CC(C)(C)C(O)=C(C(=O)c2ccc(C(F)(F)F)nc2C)C1=O [Compound 5.008]
3: post-emergence action rating, Setaria [1]
2: post-emergence action rating, Avena [1] | post-emergence action rating, Stellaria [1] | pre-emergence action rating, Avena [2] | pre-emergence action rating, Sinapis [2] | pre-emergence action rating, Stellaria [2]
1: post-emergence action rating, Sinapis [1] | post-emergence action rating, Solanum [1] | pre-emergence action rating, Cyperus [2] | pre-emergence action rating, Setaria [2] | pre-emergence action rating, Solanum [2]

Cc1nc(C(F)(F)F)ccc1C(=O)C1=C([O-])C2CCC(C2)C1=O.[K+] (stereo not shown) [Compound 1.376]
1: post-emergence action rating, Avena [1] | post-emergence action rating, Sinapis [1] | pre-emergence action rating, Cyperus [2] | pre-emergence action rating, Setaria [2] | pre-emergence action rating, Solanum [2]
2: post-emergence action rating, Setaria [1] | post-emergence action rating, Solanum [1] | post-emergence action rating, Stellaria [1] | pre-emergence action rating, Avena [2] | pre-emergence action rating, Sinapis [2] | pre-emergence action rating, Stellaria [2]

Cc1nc(C(F)(F)F)ccc1C(=O)C1=C(OC(=O)C(C)(C)C)C2CCC(C2)C1=O (stereo not shown) [Compound 1.4]
2: post-emergence action rating, Avena [1] | post-emergence action rating, Setaria [1] | post-emergence action rating, Solanum [1] | post-emergence action rating, Stellaria [1] | pre-emergence action rating, Avena [2] | pre-emergence action rating, Sinapis [2] | pre-emergence action rating, Stellaria [2]
1: post-emergence action rating, Sinapis [1] | pre-emergence action rating, Cyperus [2] | pre-emergence action rating, Setaria [2] | pre-emergence action rating, Solanum [2]

CCN(CC)C(=O)OC1=C(C(=O)c2ccc(C(F)(F)F)nc2C)C(=O)C2CCC1C2 (stereo not shown) [Compound 1.41]
1: post-emergence action rating, Avena [1] | post-emergence action rating, Setaria [1] | post-emergence action rating, Sinapis [1] | post-emergence action rating, Solanum [1] | post-emergence action rating, Stellaria [1] | pre-emergence action rating, Cyperus [2] | pre-emergence action rating, Setaria [2] | pre-emergence action rating, Sinapis [2] | pre-emergence action rating, Solanum [2] | pre-emergence action rating, Stellaria [2]
2: pre-emergence action rating, Avena [2]

Cc1nc(C(F)(F)F)ccc1C(=O)C1=C(OC(=O)C2CC2)C2CCC(C2)C1=O (stereo not shown) [Compound 1.403]
2: post-emergence action rating, Avena [1] | post-emergence action rating, Setaria [1] | post-emergence action rating, Solanum [1] | post-emergence action rating, Stellaria [1] | pre-emergence action rating, Avena [2] | pre-emergence action rating, Stellaria [2]
1: post-emergence action rating, Sinapis [1] | pre-emergence action rating, Cyperus [2] | pre-emergence action rating, Setaria [2] | pre-emergence action rating, Sinapis [2] | pre-emergence action rating, Solanum [2]

Cc1nc(C(F)(F)Cl)ccc1C(=O)C1=C(O)C2CCC(C2)C1=O (stereo not shown) [Compound 1.195]
2: post-emergence action rating, Avena [1] | post-emergence action rating, Setaria [1] | post-emergence action rating, Solanum [1] | post-emergence action rating, Stellaria [1] | pre-emergence action rating, Avena [2] | pre-emergence action rating, Stellaria [2]
1: post-emergence action rating, Sinapis [1] | pre-emergence action rating, Cyperus [2] | pre-emergence action rating, Setaria [2] | pre-emergence action rating, Sinapis [2] | pre-emergence action rating, Solanum [2]

Cc1c(C(=O)C2=C(O)C3CCC(C3)C2=O)ccc(C(F)(F)F)[n+]1[O-] (stereo not shown) [Compound 1.06]
1: post-emergence action rating, Setaria [1] | post-emergence action rating, Sinapis [1] | post-emergence action rating, Solanum [1] | pre-emergence action rating, Cyperus [2] | pre-emergence action rating, Setaria [2] | pre-emergence action rating, Solanum [2] | pre-emergence action rating, Stellaria [2]
2: post-emergence action rating, Avena [1] | post-emergence action rating, Stellaria [1] | pre-emergence action rating, Avena [2] | pre-emergence action rating, Sinapis [2]

CCC(=O)OC1=C(C(=O)c2ccc(C(F)(F)F)nc2C)C(=O)C2CCC1C2 (stereo not shown) [Compound 1.404]
2: post-emergence action rating, Avena [1] | post-emergence action rating, Setaria [1] | post-emergence action rating, Stellaria [1] | pre-emergence action rating, Avena [2] | pre-emergence action rating, Sinapis [2] | pre-emergence action rating, Stellaria [2]
1: post-emergence action rating, Sinapis [1] | post-emergence action rating, Solanum [1] | pre-emergence action rating, Cyperus [2] | pre-emergence action rating, Setaria [2] | pre-emergence action rating, Solanum [2]

Cc1nc(C(F)(F)Cl)ccc1C(=O)C1=C(O)C(C)(C)ON(C)C1=O [Compound 4.124]
2: post-emergence action rating, Avena [1] | post-emergence action rating, Setaria [1] | post-emergence action rating, Stellaria [1] | pre-emergence action rating, Avena [2] | pre-emergence action rating, Setaria [2] | pre-emergence action rating, Sinapis [2] | pre-emergence action rating, Stellaria [2]
1: post-emergence action rating, Sinapis [1] | post-emergence action rating, Solanum [1] | pre-emergence action rating, Cyperus [2] | pre-emergence action rating, Solanum [2]

CC(C)c1nc(C(F)(F)F)ccc1C(=O)C1=C(O)C2CCC(C2)C1=O (stereo not shown) [Compound 1.011]
1: pre-emergence action rating, Cyperus [2] | pre-emergence action rating, Setaria [2] | pre-emergence action rating, Sinapis [2] | pre-emergence action rating, Solanum [2] | pre-emergence action rating, Stellaria [2]
2: post-emergence action rating, Avena [1] | post-emergence action rating, Setaria [1] | post-emergence action rating, Sinapis [1] | post-emergence action rating, Solanum [1] | post-emergence action rating, Stellaria [1] | pre-emergence action rating, Avena [2]

COCc1nc(C(F)(F)F)ccc1C(=O)C1=C(O)C(C)(C)ON(C)C1=O [Compound 4.021]
1: post-emergence action rating, Sinapis [1] | post-emergence action rating, Solanum [1] | pre-emergence action rating, Cyperus [2] | pre-emergence action rating, Solanum [2]
2: post-emergence action rating, Avena [1] | post-emergence action rating, Setaria [1] | post-emergence action rating, Stellaria [1] | pre-emergence action rating, Avena [2] | pre-emergence action rating, Setaria [2] | pre-emergence action rating, Sinapis [2] | pre-emergence action rating, Stellaria [2]

COCCc1nc(C(F)(F)F)ccc1C(=O)C1=C(O)C2CCC(C2)C1=O (stereo not shown) [Compound 1.023]
1: post-emergence action rating, Sinapis [1] | pre-emergence action rating, Sinapis [2] | pre-emergence action rating, Solanum [2]
2: post-emergence action rating, Avena [1] | post-emergence action rating, Setaria [1] | post-emergence action rating, Solanum [1] | post-emergence action rating, Stellaria [1] | pre-emergence action rating, Avena [2] | pre-emergence action rating, Cyperus [2] | pre-emergence action rating, Setaria [2] | pre-emergence action rating, Stellaria [2]

O=C(C1=C(O)C2CCC(C2)C1=O)c1ccc(C(F)(F)F)nc1C(F)F (stereo not shown) [Compound 1.005]
1: post-emergence action rating, Sinapis [1] | pre-emergence action rating, Cyperus [2] | pre-emergence action rating, Setaria [2] | pre-emergence action rating, Sinapis [2] | pre-emergence action rating, Solanum [2] | pre-emergence action rating, Stellaria [2]
2: post-emergence action rating, Avena [1] | post-emergence action rating, Setaria [1] | post-emergence action rating, Solanum [1] | post-emergence action rating, Stellaria [1]
4: pre-emergence action rating, Avena [2]
